# Measurements: ChEMBL document CHEMBL1150640, “Tasiamide, a cytotoxic peptide from the marine cyanobacterium Symploca sp” (J Nat Prod, 2002)
# Columns and labels:
# [1] = tested on: KB; test: Cytotoxicity against human KB cells; assay type: functional, cell-based
# [2] = tested on: LoVo; test: Cytotoxicity against human LoVo cells; assay type: functional, cell-based
smiles,measurement,setting,value
CC[C@H](C)[C@H](O)C(=O)N[C@@H](CC(C)C)C(=O)N(C)[C@@H](CCC(N)=O)C(=O)N[C@H](C(=O)NCC(=O)N(C)[C@H](Cc1ccccc1)C(=O)N1CCC[C@H]1C(=O)OC)[C@@H](C)CC [TASIAMIDE],IC50,[1],0.48 µg/mL
same,IC50,[2],3.47 µg/mL
